Values joined by “and” are separate entries in the source; they are usually repeats but may differ in a detail not shown here. Identical values can stand only once. “Also recorded” adds a separate entry of the source.
Experiments:
[1] = tested on: PANUT-3 human melanoma xenografts; test: antitumor response against PANUT-3 human melanoma xenografts in mice; type: in vivo
Protocol: (§1) […] where 1 represents length; w--width; and h--height. Tumor sizes were monitored 2 times/week until the median volume (V=0.4(a^2 ×b) where a is the smaller of the two perpendicular tumor diameters). As an indication of drug toxicity, animal weights were also recorded at the time of tumor volume measurement. Statistical analyses were performed on mouse tumor size and weight parameters by using the Mann-Whitney test.
(§2) Tumor growth suppression was measured by plotting the mean tumor volume versus the number of days post-inoculation with polyamine analog (growth curve analyses). Suppression is determined by comparison with the growth of untreated tumors (%T/C). More specifically,: %T/C is (treated tumor volume minus pretreatment volume) divided by (control tumor volume minus pretreatment volume)×100. Typically this is measured either when the control tumor volume reaches 1000 mm^3, or at the last day of treatment.
(§3) Tumor regression is measured as a percentage representing the average percentage of decrease in tumor volume from the largest pretreatment volume value.
(§4) Repression of regrowth is represented as regrowth delay, determined as the number of days following cessation of treatment when median group tumor volume exceeds 200 mm^3 (an arbitrary indication of regrowth which was determined statistically).
(§5) For example, human melanoma cell lines including MALME-3, SH-1, PANUT-3 and LOX were evaluated for the level of SSAT induction and potency of antitumor response following BENSPM treatment (80 mg/kg 3×/day×6 days) using the methodology previously described in this embodiment. […] The baseline of SSAT activity in the control mice (2 examined of 7 mice) ranged from 50 to 90 pmol/min/mg. […] Note that following BENSPM treatment (as discussed above in the context of Tables 4 and 5), suppression of tumor growth of PANUT-3, unlike suppression of MALME-3 growth, lasted for only about 12 days. Further, the levels of SSAT in PANUT-3 at two weeks post-treatment, approached the levels in the control and correlated with the loss of antitumor activity.

[2] = tested on: A121 human ovarian adenocarcinoma xenografts; test: antitumor response against A121 human ovarian adenocarcinoma xenografts in mice; type: in vivo
Protocol: as §1, §2, §3, §4
(§6) Cells from malignant solid human tumor tissue types, other than melanoma, have also been evaluated for their responsiveness to polyamine analog treatment including clonal cell lines A121 (human ovarian adenocarcinoma),A549 (lung adenocarcinoma), and HT29 colon adenocarcinoma). These cell lines were evaluated for the level of SSAT induction and potency of antitumor response following BENSPM treatment (80 mg/kg 3×/day×6 days) in-vivo using the methodology previously described in this embodiment. Also, dose of BENSPM was compared (80 mg/kg versus 40 mg/kg). The baseline of SSAT activity in the control mice (2 of 7 mice) ranged from 40 to 90 pmol/min/mg. Tumor cells from the human xenografts A121, A549, and HT29 were removed from two mice of each treated group of seven mice containing the respective xenograft at 16 hours following the final BENSPM injection to evaluate the level of induction of SSAT activity. […] The response to the polyamine analog was heterotypic. […] As discussed previously, it is not known whether the heterotypic antitumor response may be due to either the individual properties of the clonal line or the particular solid tumor type.

[3] = tested on: polyamine pools of host tissue; test: polyamine pools in host tissue of treated mice; type: in vivo, mouse; design: unit not given here; settings: 40 mg/kg
[4] = tested on: S-adenosylmethionine decarboxylase (SAMDC); test: SAMDC activity in human melanoma xenografts in-vivo
[5] = tested on: SH-1 human melanoma xenografts; test: antitumor response against SH-1 human melanoma xenografts in mice; type: in vivo; settings: SH-1, BENSPM at 80 mg/kg
Protocol: as §1, §2, §3, §4, §5

[6] = tested on: HT29 colon adenocarcinoma xenografts; test: antitumor response against HT29 colon adenocarcinoma xenografts in mice; type: in vivo, human
Protocol: as §1, §2, §3, §4, §6

LOX melanoma cells = test: N^1 -acetylspermidine in LOX cell cultures; type: cell-based, human; settings: 10 μm BESPM, 48 hours
Protocol: (§7) To illustrate this embodiment, LOX and MALME-3 cell cultures were treated for 48 hours with 10 μm BESPM. The cells from each culture were harvested and assayed for SSAT activity. Media samples were prepared by treating the samples with 50% trichloroacetic acid to give a final concentration of 10% and then centrifuged at 15,000×g for 10 minutes. The supernatant was then filtered through a 0.22-μm filter, extracted with several volumes of ether, lyophilized, and resuspended in 10% trichloroacetic acid. N^1 -acetylspermidine levels of cells and media samples were then measured by use of high-pressure liquid chromatography. […] Similarly, N^1 -acetylspermidine levels from MALME-3 control cells, media from control cell cultures, and treated MALME-3 cells contained minimal levels of N^1 -acetylspermidine.

MALME-3 melanoma cells = test: N^1 -acetylspermidine in MALME-3 cell cultures; type: cell-based, human; settings: MALME-3, 10 μm BESPM, 48 hours
Protocol: as §7

natural polyamine pools = settings: in-vitro; cited from earlier work
[7] = tested on: SH-1 human melanoma cells; test: growth of SH-1 melanoma cells in-vitro (FIG. 5); type: cell-based; settings: SH-1, 10 μM BESPM, 48 hours
Protocol: (§8) As mentioned previously, cells from malignant solid tumor respond to polyamine analog therapy heterotypically. SSAT induction and antitumor response may vary not only among the solid tumor tissue type, but also with the clonal line of tumor of a particular solid tissue type. However, a correlation between the level of induction of SSAT and the potency of antitumor response has been observed in tumors of a particular solid tissue type. For example, seven human melanoma cell lines were assayed in-vitro for their response, as determined by cell growth and level of SSAT induction, to 10 μM BESPM at 48 hours post-treatment. As summarized in FIG. 5, growth among the cell lines decreases as SSAT induction increases.

[8] = tested on: MALME-3 human melanoma cells; test: growth of MALME-3 melanoma cells in-vitro (FIG. 5); type: cell-based; settings: MALME-3, 10 μM BESPM, 48 hours
Protocol: as §8

[9] = A121, BENSPM 80 mg/kg 3x/d × 6d
[10] = HT29, BENSPM 80 mg/kg 3x/d × 6d

CCNCCCNCCCNCCCNCC [BENSPM, N^1,N^11 -bis(ethyl)norspermine]
tumor regression, PANUT-3 versus MALME-3 ([1]; BENSPM 80 mg/kg 3×/day×6 days): significantly more tumor regression
% T/C at 1 g ([1]; PANUT-3, BENSPM at 80 mg/kg): 10%
Tumor Regression ([1]; PANUT-3, BENSPM at 80 mg/kg): Major
Regrowth Delay ([1]; PANUT-3, BENSPM at 80 mg/kg, dt 7 days): 2.7 × dt
No Regrowth ([1]; PANUT-3, BENSPM at 80 mg/kg, for duration of experiment): 0/5
duration of suppression of tumor growth ([1]; PANUT-3 xenograft, following BENSPM treatment): about 12 days
% T/C at 1 g [2, 9]: < 0%
Tumor Regression [2, 9]: showed tumor regression; also recorded: Present
Regrowth Delay ([2]; A121, BENSPM 80 mg/kg 3x/d × 6d, dt 5 days): 3.2 × dt
No Regrowth ([2]; A121, BENSPM 80 mg/kg 3x/d × 6d, for duration of experiment): 2 of 5 and 2/5
total growth suppression period ([2]; A121 xenograft, 80 mg/kg 3×/day×6 days): 16 days
PUT pool ([3]; kidney, 2 wks post-treatment): 20/20
SPD pool ([3]; kidney, 2 wks post-treatment): 210/210
SPM pool ([3]; kidney, 2 wks post-treatment): 360/370
PUT pool ([3]; kidney, 16 hrs post-treatment): 100/40
SPD pool ([3]; kidney, 16 hrs post-treatment): 100/100
SPM pool ([3]; kidney, 16 hrs post-treatment): 260/250
PUT pool ([3]; liver, 2 wks post-treatment): 20/20
SPD pool ([3]; liver, 2 wks post-treatment): 530/530
SPM pool ([3]; liver, 2 wks post-treatment): 400/330
PUT pool ([3]; liver, 16 hrs post-treatment): 90/100
SPD pool ([3]; liver, 16 hrs post-treatment): 80/90
SPM pool ([3]; liver, 16 hrs post-treatment): 170/200
SAMDC levels ([4]; MALME-3 study): ODC and SAMDC levels were not suppressed
SAMDC levels ([4]; PANUT-3 study): ODC and SAMDC levels were not suppressed
% T/C at 1 g [5]: < 0%
Tumor Regression [5]: Present
Regrowth Delay ([5]; dt 15 days): 2.1 × dt
No Regrowth ([5]; for duration of experiment): 1/5
% T/C at 1 g [6, 10]: 24%
Tumor Regression [6, 10]: no measurable tumor regression and None
Regrowth Delay ([6]; HT29, BENSPM 80 mg/kg 3x/d × 6d, dt 3.5 days): None
No Regrowth ([6]; HT29, BENSPM 80 mg/kg 3x/d × 6d, for duration of experiment): two of five mice examined showed no regrowth and 2/5
growth rate ([6]; HT29 xenograft, 80 mg/kg 3×/day×6 days): reduced growth rate

CCNCCCNCCCCNCCCNCC [BESPM, N^1,N^12-bis(ethyl)spermine]
N^1 -acetylspermidine Extracellular (LOX melanoma cells): < 0.1 nmol/culture
N^1 -acetylspermidine Intracellular (LOX melanoma cells): < 0.1 nmol/culture
N^1 -acetylspermidine Intracellular (MALME-3 melanoma cells): 0.1 nmol/culture
natural polyamine pools (natural polyamine pools): deplete natural polyamine pools
growth inhibition (FIG. 5) [7]: least growth inhibition
growth inhibition (FIG. 5) [8]: greatest growth inhibition

Reference: patent US5498522A, “Methods for the use of spermidine/spermine N^1 -acetyltransferase as a prognostic indicator and/or a tumor response marker” (priority 1993, dated 1996)
